Consider 1 molecule from patent publication US10017459B2, “β-substituted β-amino acids and analogs as chemotherapeutic agents and uses thereof” (Quadriga Biosciences, Inc., priority 2015, dated 2018).

Bounds are passed on as bounds.

The test system of one series is LN229. The series can be described thus: cells. It is filed as cell-based. As to conditions: Homo sapiens, LN-229, read-out: IC50 (in vitro toxicity).
In series [1] the test system is MDA-MB-231. As to the kind of experiment: cells. It is filed as cell-based. To be noted: Homo sapiens, MDA-MB-231, read-out: IC50 (in vitro toxicity).
A further series has as its system HCT116. The series can be described thus: In vitro cytotoxicity, HCT116. Format: cell-based. As to conditions: Homo sapiens, HCT-116, read-out: IC50 (in vitro toxicity).
A further series relates to U251 MG. As to the kind of experiment: Orthotopic glioblastoma study (Example 83). Format: in vivo, mouse. To be noted: athymic mice, 10 mg/kg IP once weekly for 4 weeks. Here is the method:
The efficacy of compounds provided by the present disclosure was evaluated using an orthotopic luciferase human glioblastoma model—U251 MG. Human glioblastoma cells were intracolonically injected (3×10^5 cells/3 μL) into athymic mice (female, 4-5 weeks-old, nu/un homozygous). Treatment began when the BLI reached a log-phase growth, at about 14 days after injection. Ten mice were assigned to each arm of the study. The mice were dosed with vehicle (IP, once weekly for 4 weeks), temozolomide (TMZ, 4 mg/kg, OG once daily for 5 days), or compound (5) (10 mg/kg, IP once weekly for 4 weeks). The tumor volume was measured using bioluminescence imaging.

In a further series the test system is HS27A. As to the kind of experiment: cells. Format: cell-based. To be noted: HS-27A, read-out: IC50 (in vitro toxicity).
The subject of series [2] is MDA-MB-231. As to the kind of experiment: Triple negative breast cancer study, IV dosing. It is filed as in vivo, mouse. As to conditions: IV once a week for 8 weeks. Here is the method: The efficacy of compounds provided by the present disclosure was evaluated on a triple negative breast cancer xenograft model—MDA-MB-231. Human triple negative breast cancer cells were implanted into the flank of nude mice and the study was initiated after the volume of the tumors was 150 mm^3. The animals were IV dosed once a week for 8 weeks with either vehicle or 5 mg/kg of compound (5), or 20 mg/kg compound (7). The tumor volume, body weight, white blood cell count, and granulocyte count were determined during the study and 12 days after the final dose was administered.

The subject of a further series is DBRTG. The series can be described thus: cells. To be noted: read-out: IC50 (in vitro toxicity). It is filed as cell-based.
In another series the test system is U266. As to the kind of experiment: cells. It is filed as cell-based. To be noted: Homo sapiens, U-266, read-out: IC50 (in vitro toxicity).
Series [3] deals with LLCPK cells conditionally expressing hLAT1. The series can be described thus: cells. As to conditions: 0.5 h, read-out: LC50, concentration of test compound at which the percent surviving cells was 50%.
The next series deals with KMS11. As to the kind of experiment: cells. It is filed as cell-based. As to conditions: Homo sapiens, KMS-11, read-out: IC50 (in vitro toxicity).
The test system of a further series is D283. The series can be described thus: cells. It is filed as cell-based. To be noted: D283, read-out: IC50 (in vitro toxicity).
The subject of a further series is PC3 tumors. The series can be described thus: Prostate cancer xenograft study, large tumor study. Format: in vivo, mouse. Here is the method: PC3 tumors were implanted into mice and the study was initiated after the volume of the tumors was 500 mm^3. Five (5) mg/kg compound (5) was administered by IP injection three times per week for two weeks. The tumor size, body weight, white cell count, and granulocyte count were measured.
In a counterpart study, mice in which the PC3 tumor size was at least 500 mm^3 were administered either 7.5 mg/kg or 10 mg/kg compound (5) three times a week for four weeks. In these studies, the mice were first administered a dose of either 2.5 mg/kg or 1.25 mg/kg, three times per week for three weeks. The tumor size, body weight, white cell count, and granulocyte count were measured. The tumor volume for the 7.5 mg/kg dosing regimen is resented in FIGS. 8A-8D, and for the 10 mg/kg dosing regimen in FIGS. 9A-9D.

[4] abbreviates: 5 mg/kg IP three times per week for two weeks.
[5] abbreviates: 7.5 mg/kg or 10 mg/kg dosing regimens.

A word on the IC50: it is the concentration needed to halve the response being measured. Regarding `Cc1ccc(N(CCCl)CCCl)cc1C[C@H](N)CC(=O)O` [Compound 5, (3S)-3-Amino-4-[5-[bis(2-chloroethyl)amino]-2-methyl-phenyl]butanoic Acid], the IC50 in the series with LN229 was under 100 µM; with MDA-MB-231 [1] it was under 100 µM; in the series with HCT116, under 100 µM; in the series on HS27A it was over 100 µM; in the series with DBRTG it was under 100 µM; in the series on U266, under 100 µM. The IC50 with KMS11 is over 100 µM; in the series on D283, under 100 µM. Moreover, in the series with U251 MG, the “crossing of the BBB” value is “crossed the BBB”. The “glioblastoma tumor growth (bioluminescence imaging)” value in the series with U251 MG was “suppressed glioblastoma tumor growth”. In addition, the body weight result in the series with MDA-MB-231 [2] is given as “maintained weight”; in the series on PC3 tumors (setting [4]), “decreased”. Besides, in the series with MDA-MB-231 [2], the myelosuppression entry was “not dectected”. Also, the tumor growth suppression result in the series with MDA-MB-231 [2] (nude mice, 5 mg/kg compound (5), 20 mg/kg compound (7)) is “dose-dependent tumor growth suppression”. In addition, the CC50 in [3] is under 1000 nM. Besides, the “cell counts (white cell, granulocyte)” value in the series on PC3 tumors (setting [4]) and with PC3 tumors (setting [5]) was “remained within the normal range” throughout. The body weights entry in the series with PC3 tumors (setting [5]) was “remained about the same”. For the same molecule, the “tumor growth rate, large tumors” value with PC3 tumors (tumors 500 mm3, 5 mg/kg IP three times per week for two weeks) was “growth rate slowed for some large tumors”. The “PC3 tumor growth, large tumors” value with PC3 tumors (tumors at least 500 mm3, 7.5 mg/kg or 10 mg/kg three times a week for four weeks) is “slowed in many of the animals and in some the size of the tumor decreased”.
